These are literature values, as cited in patent publication US11229617B2, “Topical anti-inflammatory compositions” (Achelios Therapeutics, Inc., priority 2016, dated 2022).

SMILES strings stand for the structures.

On to `CCCCCC(=O)O` [hexanoic (caproic) acid], for which the pKa – broadly, the negative logarithm of the acid dissociation constant – was 4.88.
On to `CC(C)(O)CC(=O)O` [hydroxymethyl-butyric acid], for which the pKa is 4.55.
